Molecules are shown by their SMILES.

What all share (assay type): in vivo, C57BL/6 male mice
The test system of test [1] is animal model of peritoneal fibrosis. As to the kind of experiment: Peritoneal tissue staining (PAS, Masson's trichrome, Sirius red) in animal model of peritoneal fibrosis. The settings on record: FIG. 1. The procedure:
(§1) In order to create an animal model of peritoneal fibrosis, 7-week-old C57BL/6 male mice were purchased from Koatech and bred under constant conditions (temperature: 22±2° C., relative humidity: 55±10%, circadian cycle: 12 hours). Five animals were grouped into one group, and water and food were freely supplied in cages, and they were used in the experiment after acclimatization for one week before the experiment. After the acclimatization period, 0.1% chlorohexidine was administered by intraperitoneal injection every 3 days for 30 days to establish an animal model of peritoneal fibrosis. […] Group 3 was orally administrated with CHP at a concentration of 17.5 mg/kg (CG-PD+CHP(17.5)), and Group 4 was orally administered with CHP at a concentration of 35 mg/kg (CG-PD+CHP(35)) through 1 mL syringes every day for 30 days.
Among the experimental animals designed in Example 1-1, the peritoneum was obtained from the mice of the groups administered with the drug and 0.1% chlorohexidine for 30 days from the xyphoid process to the upper part of the pelvic cavity, and then sacrificed with whole blood. From the skin to the parietal peritoneum, the tissues of the left abdomen were excised in a size of 0.5×1.0 cm, and some were fixed in 10% formalin for immunostaining and then embedded in paraffin. The tissue sections were cut to a thickness of 4 μm and evaluated by performing Periodic acid-Schiff (PAS) staining, Masson's trichrome (MT) staining and Sirius Red staining to check the degree of peritoneal fibrosis. After observation with an optical microscope, photographs were taken (Olympus BX-50, Olympus Optical, Tokyo, Japan).

Test [2] shares this test system. As to the kind of experiment: Immunohistochemical staining of ICAM-1 and F4/80 in peritoneum of animal model of peritoneal fibrosis. Conditions: CHP 17.5 and 35 mg/kg orally, 30 days, vs CG-PD, FIG. 2. The procedure: as §1
Peritoneal tissues were extracted from the mice of each group of Example 1-1, fixed in 10% formalin for immunostaining and then embedded in paraffin. Using the streptavidin biotin peroxidase (Vector Laboratories) method, these were reacted with each of the anti-ICAM1 antibody and the […] at 4° C. for 16 hours, followed by color development with diaminobenzidine tetrahydrochloride (DAB) to confirm the expressions.

For test [3] the test system is unchanged. Nature of the test: Western blot of collagen 1, αSMA, p16 and p21 in peritoneal tissue of animal model of peritoneal fibrosis. Conditions: Western blot corrected by GAPDH, CHP 17.5 and 35 mg/kg orally, vs CG-PD, FIGS. 3a. How it is done: as §1
Isoflurane which is necessary for anesthesia and dissection of mice in each group of Example 1-1 was purchased from Hana Pharm, and VetEquip's RC2 Rodent Circuit Controller Anesthesia System was prepared. Phosphate-buffered saline (PBS) was purchased from Hyclone. In order to isolate the peritoneal tissue of the mice, the mice were anesthetized by respiratory anesthesia with 3 to 3.5% isoflurane. After blood was drawn from the heart of anesthetized mice, the peritoneal tissue was immediately removed, washed with PBS, and 50 mg of the peritoneal tissue was cut out and placed in 500 μL of RIPA buffer containing protease and phosphatase inhibitors, and it was crushed using IKA's T10 homogenizer. After standing on ice for 15 minutes, centrifugation was performed at 15000 rpm at 4° C. The supernatant was collected and the protein concentration was measured by BCA quantitation, and in the same amount of the samples, the protein was separated using the Bolt™ protein gel electrophoresis system, and then transferred to a nitrocellulose membrane. The membrane was blocked with 5% skim milk at room temperature for 1 hour, and then reacted with primary antibodies collagen 1, αSMA, NRF2, p16, p21 and GAPDH antibodies overnight at 4° C. After washing 3 times for 10 minutes with TBST, the reaction was performed with the secondary antibodies at room temperature for 1 hour. After washing 3 times for 10 minutes with TBST, the expression level was measured by reacting with ECL. The size of the appearing band was quantified using the ImageJ program, and each band size value was divided by the GAPDH band size value and corrected. Statistical significance was analyzed using Student's t-test statistical method with the peritoneal fibrosis control group (CG-PD) (*p<0.05, […], ***p<0.0005).
On the technique in general: Immunoblotting shows a protein as a band on a membrane.

Test [4] has the same test system. Nature of the test: Real-time PCR of collagen 1, p21 and E-cadherin in peritoneal tissue of animal model of peritoneal fibrosis. Conditions: real-time PCR corrected by GAPDH, CHP 17.5 and 35 mg/kg orally, vs CG-PD. How it is done: as §1
Isoflurane which is necessary for anesthesia and dissection of mice in each group of Example 1-1 was purchased from Hana Pharma, and VetEquip's RC2 Rodent Circuit Controller Anesthesia System was prepared. Phosphate-buffered saline (PBS) was purchased from Hyclone. In order to isolate the peritoneal tissue of the mice, the mice were anesthetized by respiratory anesthesia with 3 to 3.5% isoflurane. After blood was drawn from the heart of the anesthetized mice, the peritoneal tissue was immediately removed, 50 mg of the peritoneum was cut, 500 μL of NucleoZOL was added, and then it was crushed using IKA's T10 homogenizer. Subsequently, RNA was extracted according to NucleoZOL's total RNA isolation protocol, and cDNA was synthesized from 1 μg of RNA by reverse transcription polymerase chain reaction using the iScript cDNA synthesis kit. The synthesized cDNA was analyzed by real-time PCR with iQ SYBR Green Supermix using forward/reverse primer sets corresponding to each gene. The expression value of each gene was corrected by dividing by the expression value of GAPDH, a housekeeping gene. Statistical significance was analyzed using Student's t-test statistical method with the peritoneal fibrosis control group (CG-PD) (*p<0.05, […], ***p<0.0005).
On the technique in general: Quantitative PCR measures a nucleic acid by following its amplification.

In the case of `O=C1N[C@@H](Cc2cnc[nH]2)C(=O)N2CCC[C@@H]12` [CHP, cyclo(His-Pro)], the “thickened peritoneal layer (MT staining)” value in test [1] (CHP 35 mg/kg administration group compared to 17.5 mg/kg administration group, oral, daily, 30 days) is “significantly reduced”. For the same molecule, in test [1] (CHP 17.5 and 35 mg/kg orally every day for 30 days, 0.1% chlorohexidine i.p. model, vs fibrosis control group (CG-PD)), the “deposition of immune cells (PAS staining)” value is “significantly reduced in a concentration-dependent manner”. In addition, the “accumulation of extracellular matrix (ECM) collagen (Sirius red staining)” value in test [1] (CHP 17.5 and 35 mg/kg orally every day for 30 days) is listed as “significantly reduced in a concentration-dependent manner”. Also, in test [2], the “expression level of ICAM-1 (IHC)” value was “decreased” and the “infiltration of immune cells (f4/80-positive cells, IHC)” value was “rapidly decreased”. The “extracellular matrix collagen (collagen 1) protein expression” value in test [3] (3b) is recorded as “statistically significantly decreased”. The α-SMA protein expression entry in test [3] (3c) was “statistically significantly decreased”. The p16 protein expression result in test [3] (3e) is recorded as “significantly reduced”. In test [3] (3d), the p21 protein expression entry was “significantly reduced”. Also, in test [4] (FIG. 4a), the “mRNA expression of extracellular matrix collagen 1” value is listed as “decreased”. For the same molecule, the p21 gene expression result in test [4] (FIG. 4b) was “significantly reduced”. The “expression level of E-cadherin (gene)” value in test [4] (FIG. 4c) is on record as “significantly increased”.
